Results published in article PMC3944923, “Intestinal Transportations of Main Chemical Compositions of Polygoni Multiflori Radix in Caco-2 Cell Model” (Evidence-based Complementary and Alternative Medicine : eCAM, 2014).
“Also recorded” adds a separate entry of the source.

Key:
[1] = Caco-2 cell monolayer transport (absorption, AP → BL), HPLC-DAD; details: human
Protocol: (§1) The cells were left to grow for 21 days to reach confluence and differentiation, so that Caco-2 cells were fully differentiated in this assay and used for further experiments.
(§2) Flux describes the movement of a substance across polarized Caco-2 monolayers either in absorptive (apical → basolateral, AP → BL) or secretary direction (basolateral → apical, BL → AP). Absorption assay was carried out in this research.
(§3) To determine the concentration of corresponding constituents in both AP and BL sides, the lyophilized samples of AP and BL sides were dissolved in quantitative methanol by ultrasound for 20 min and then filtered by 0.45 μm filtration membranes.

Caco-2 cell monolayer = test: as above; details: for absorption by human intestinal epithelial cells, judged from P app against atenolol and propranolol: Caco-2 monolayer, AP → BL; for recovery rate (in words): Caco-2 assay
Protocol: as §1, §2, §3

[2] = Caco-2, Recovery rate, total compound in donor and receiver at end / initial compound, Caco-2, 90 min, Mean ± SD, n ≥ 3

Compound: O=C1c2cccc(O)c2C(=O)c2c(O)cc(CO)cc21 [AE, aloe-emodin]
- Papp at 1.5 h ([1]; Caco-2): 0.0195 ×10⁻⁶ cm/s
- recovery at 1.5 h ([1]; Caco-2): 42.4 ± 6.32%
- absorption by human intestinal epithelial cells, judged from P app against atenolol and propranolol (Caco-2 cell monolayer): partly absorbed

Compound: Cc1cc(O)c2c(c1)C(=O)c1cc(O)cc(O)c1C2=O [EN, emodin]
- Papp at 1.5 h ([1]; Caco-2): 0.00248 ×10⁻⁶ cm/s
- recovery at 1.5 h ([1]; Caco-2): 14.5 ± 2.5%
- recovery rate (in words) (Caco-2 cell monolayer): poor recovery rates; also recorded: low recovery rates

Compound: OC[C@H]1O[C@@H](Oc2cc(O)cc(/C=C/c3ccc(O)cc3)c2)[C@H](O)[C@@H](O)[C@@H]1O [PL, polydatin]
- Papp at 1.5 h ([1]; Caco-2): 0.00492 ×10⁻⁶ cm/s
- recovery at 1.5 h [1, 2]: 59.9 ± 9.9%
- absorption by human intestinal epithelial cells, judged from P app against atenolol and propranolol (Caco-2 cell monolayer): hardly absorbed

Compound: CC(C)NCC(O)COc1cccc2ccccc12 (stereo not drawn) [PR, Propranolol, reference compound]
- Papp at 1.5 h ([1]; Caco-2): 0.0607 ×10⁻⁶ cm/s
- recovery at 1.5 h [1, 2]: ~100%

Compound: Oc1ccc(/C=C/c2cc(O)cc(O)c2)cc1 [RL, resveratrol]
- Papp at 1.5 h ([1]; Caco-2): 0.0178 ×10⁻⁶ cm/s
- recovery at 1.5 h [1, 2]: 62.4 ± 6.21%
- absorption by human intestinal epithelial cells, judged from P app against atenolol and propranolol (Caco-2 cell monolayer): partly absorbed

Compound: O=C(O)c1cc(O)c2c(c1)C(=O)c1cccc(O)c1C2=O [RN, rhein]
- Papp at 1.5 h ([1]; Caco-2): 0.0171 ×10⁻⁶ cm/s
- recovery at 1.5 h [1, 2]: ~100%
- absorption by human intestinal epithelial cells, judged from P app against atenolol and propranolol (Caco-2 cell monolayer): partly absorbed

Compound: OC[C@H]1O[C@@H](Oc2c(O)cc(O)cc2/C=C/c2ccc(O)cc2)[C@H](O)[C@@H](O)[C@@H]1O [TSG, 2,3,5,4′-tetrahydroxystilbene-2-O-β-D-glucoside]
- Papp at 1.5 h ([1]; Caco-2): 0.00237 ×10⁻⁶ cm/s
- recovery at 1.5 h [1, 2]: 17.4 ± 1.6%
- recovery rate (in words) (Caco-2 cell monolayer): poor recovery rates; also recorded: low recovery rates
- absorption by human intestinal epithelial cells, judged from P app against atenolol and propranolol (Caco-2 cell monolayer): hardly absorbed; also recorded: poorly absorbed
